Results: patent US12497349B2, “Salts of tranexamic acid esters” (Actera Ingredients, Inc., priority 2019, dated 2025)

Test: Viscosity by vertical falling sphere method
Format: physicochemical
Conditions: room temperature 25±1° C.; 1.0 and 5.0 wt. % in water; compared to the tranexamate hydrochloride salt; FIG. 2
Protocol: Compositions of tranexamate ester salts with differing counter-ions as shown in Table 5 were prepared as follows. 1) Ingredients A to C were combined based on the weight ratios in Table 5. 2) The mixture was heated with stirring to 80±5° C. until all solids were dissolved. 3) The homogeneous mixture was removed from the heat and allowed to cool to room temperature (25±5° C.).
The viscosity at room temperature (25±1° C.) of Examples 13-16 was determined by the method of the vertical falling sphere using the equation μ=[2 (ρs−ρl) g a^2 ]/9v, where μ=dynamic viscosity, ρs=density of the sphere, ρl=density of the test material (Examples 13-16), g=standard gravity, a=radius of the sphere, and v=velocity of the sphere.
Results are represented in FIG. 2. […] Additionally, the tranexamate sulfonate salt yielded stable and homogeneous compositions not observed with the tranexamate hydrochloride salt (see Examples 1 to 12).

For CCCCCCCCCCCCCCCCOC(=O)C1CCC(CN)CC1.CS(=O)(=O)O (stereo not shown) [tranexamate sulfonate salt, Cetyl tranexamate mesylate], the Viscosity was “higher viscosity with increasing concentration”.
